# Experimental data taken from the Kinase Knowledgebase extract (Sharma et al. 2016).
# Molecular target: PIK3CG (human) (UniProt P48736)
# Experiment: Inhibition of PIK3CG Kinase Activity
# PIK3CG (human), sequence (P48736 whole entry, looked up): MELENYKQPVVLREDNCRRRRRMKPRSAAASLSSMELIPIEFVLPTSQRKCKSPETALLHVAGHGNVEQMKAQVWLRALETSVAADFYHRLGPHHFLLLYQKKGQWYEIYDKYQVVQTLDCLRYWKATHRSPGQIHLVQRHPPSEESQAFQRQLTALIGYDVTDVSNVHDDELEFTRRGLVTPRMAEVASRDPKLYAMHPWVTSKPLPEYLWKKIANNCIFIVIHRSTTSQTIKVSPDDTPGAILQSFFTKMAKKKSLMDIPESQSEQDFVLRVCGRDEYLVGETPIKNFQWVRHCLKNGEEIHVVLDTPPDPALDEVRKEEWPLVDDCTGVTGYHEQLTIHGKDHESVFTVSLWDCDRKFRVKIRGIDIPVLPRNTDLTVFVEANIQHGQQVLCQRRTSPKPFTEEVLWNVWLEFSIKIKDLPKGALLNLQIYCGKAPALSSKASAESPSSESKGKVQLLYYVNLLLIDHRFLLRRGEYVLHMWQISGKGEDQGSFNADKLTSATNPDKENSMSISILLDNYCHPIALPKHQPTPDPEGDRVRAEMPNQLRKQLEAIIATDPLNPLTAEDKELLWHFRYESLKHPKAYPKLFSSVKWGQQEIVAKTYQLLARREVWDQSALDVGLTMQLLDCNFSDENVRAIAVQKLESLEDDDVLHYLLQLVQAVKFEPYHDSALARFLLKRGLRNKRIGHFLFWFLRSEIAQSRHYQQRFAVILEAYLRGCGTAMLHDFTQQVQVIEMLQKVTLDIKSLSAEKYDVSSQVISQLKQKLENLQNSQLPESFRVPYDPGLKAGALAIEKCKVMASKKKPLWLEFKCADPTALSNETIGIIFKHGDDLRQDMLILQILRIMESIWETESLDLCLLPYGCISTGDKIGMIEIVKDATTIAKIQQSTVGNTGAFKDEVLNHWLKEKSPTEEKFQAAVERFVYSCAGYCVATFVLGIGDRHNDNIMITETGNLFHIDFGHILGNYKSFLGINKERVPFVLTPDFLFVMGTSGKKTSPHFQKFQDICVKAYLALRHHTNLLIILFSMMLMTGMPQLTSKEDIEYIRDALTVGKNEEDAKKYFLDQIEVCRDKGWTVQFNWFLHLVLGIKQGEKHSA
row,IC50,SMILES
1,< 800 nM,O=C(NCc1ccco1)Nc1nc2c(s1)-c1c(cnn1-c1ccccc1C(F)(F)F)C2
2,< 800 nM,Cn1ccc(CNC(=O)Nc2nc3c(s2)-c2c(cnn2-c2ccccc2C(F)(F)F)C3)n1
3,< 800 nM,CCc1csc(CCNC(=O)Nc2nc3c(s2)-c2c(cnn2-c2ccccc2C(F)(F)F)C3)n1
4,< 800 nM,CN(C(=O)OC(C)(C)C)C1CCN(C(=O)Nc2nc3c(s2)-c2c(cnn2-c2ccccc2Cl)C3)C1 (centres undefined)
5,< 800 nM,NC(=O)Nc1nc2c(s1)-c1c(cnn1-c1ccccc1Br)C2
6,< 800 nM,CC(C)(C)OC(=O)NC1CCN(C(=O)Nc2nc3c(s2)-c2c(cnn2-c2ccccc2Cl)C3)C1 (centres undefined)
7,< 800 nM,CC(C)(C)OC(=O)N1CCCC(CNC(=O)Nc2nc3c(s2)-c2c(cnn2-c2ccccc2Cl)C3)C1 (centres undefined)
8,< 800 nM,CCc1cnc(CCNC(=O)Nc2nc3c(s2)-c2c(cnn2-c2cc(Cl)ccc2Cl)C3)o1
9,< 800 nM,O=C(NCCc1nc(C2CC2)no1)Nc1nc2c(s1)-c1c(cnn1-c1ccccc1Cl)C2
10,< 800 nM,O=C(NCCO)Nc1nc2c(s1)-c1c(cnn1-c1ccccc1C(F)(F)F)C2
11,< 800 nM,O=C(C[C@H]1CCCN1C(=O)OCc1ccccc1)Nc1nc2c(s1)-c1c(cnn1-c1ccccc1Cl)C2
12,< 800 nM,NC(=O)Nc1nc2c(s1)-c1c(cnn1-c1ccccc1C(F)(F)F)C2
13,< 800 nM,CCOC(=O)c1ccc(CNC(=O)Nc2nc3c(s2)-c2c(cnn2-c2ccccc2C(F)(F)F)C3)o1
14,< 800 nM,CCNC(=O)Nc1nc2c(s1)-c1c(cnn1-c1ccccc1C(F)(F)F)C2
15,< 800 nM,O=C(NCC1CCCN(c2ncccn2)C1)Nc1nc2c(s1)-c1c(cnn1-c1ccccc1Cl)C2 (centres undefined)
16,< 800 nM,O=C(NCc1ccccc1)Nc1nc2c(s1)-c1c(cnn1-c1ccccc1Cl)C2
17,< 800 nM,CC(C)NC(=O)Nc1nc2c(s1)-c1c(cnn1-c1ccccc1Br)C2
18,< 800 nM,CC(C)Cn1cnc(CCNC(=O)Nc2nc3c(s2)-c2c(cnn2-c2ccccc2C(F)(F)F)C3)c1
19,< 800 nM,O=C(O)CC1(CNC(=O)Nc2nc3c(s2)-c2c(cnn2-c2ccccc2Cl)C3)CCCCC1
20,< 800 nM,CN(C)C(=O)Nc1nc2c(s1)-c1c(cnn1-c1ccccc1C(F)(F)F)C2

row,IC50,SMILES
1,< 800 nM,CCCNC(=O)Nc1nc2c(s1)-c1c(cnn1-c1ccccc1Cl)C2
2,< 800 nM,CC(C)c1nnc(CCNC(=O)Nc2nc3c(s2)-c2c(cnn2-c2ccccc2C(F)(F)F)C3)o1
3,< 800 nM,O=C(Nc1nc2c(s1)-c1c(cnn1-c1ccccc1Cl)C2)N1CCCCC1c1nc2ccccc2[nH]1 (centres undefined)
4,< 800 nM,CC(C)(C)OC(=O)N1CCC[C@H]1CNC(=O)Nc1nc2c(s1)-c1c(cnn1-c1ccccc1Cl)C2
5,< 800 nM,CCCn1cnc(CCNC(=O)Nc2nc3c(s2)-c2c(cnn2-c2ccccc2C(F)(F)F)C3)c1
6,< 800 nM,CCN1CCC[C@@H]1CNC(=O)Nc1nc2c(s1)-c1c(cnn1-c1ccccc1Cl)C2
7,< 800 nM,CCCNC(=O)Nc1nc2c(s1)-c1c(cnn1-c1cccc(F)c1C(F)(F)F)C2
8,< 800 nM,Cc1nn(C)cc1CNC(=O)Nc1nc2c(s1)-c1c(cnn1-c1ccccc1Cl)C2
9,< 800 nM,CN(C)C(=O)Nc1nc2c(s1)-c1c(cnn1-c1ccccc1Br)C2
10,< 800 nM,CC(C)Cn1nc(CCNC(=O)Nc2nc3c(s2)-c2c(cnn2-c2ccccc2C(F)(F)F)C3)cc1N
11,< 800 nM,CCc1cnc(CCNC(=O)Nc2nc3c(s2)-c2c(cnn2-c2ccccc2Br)C3)o1
12,< 800 nM,CCc1noc(CCNC(=O)Nc2nc3c(s2)-c2c(cnn2-c2ccccc2Cl)C3)n1
13,< 800 nM,CN(CCc1cn[nH]c1)C(=O)Nc1nc2c(s1)-c1c(cnn1-c1ccccc1C(F)(F)F)C2
14,< 800 nM,CCc1nnc(CCNC(=O)Nc2nc3c(s2)-c2c(cnn2-c2ccccc2C(F)(F)F)C3)o1
15,< 800 nM,Cc1nc[nH]c1-c1cccc(CNC(=O)Nc2nc3c(s2)-c2c(cnn2-c2ccccc2Cl)C3)c1
16,< 800 nM,O=C(Nc1nc2c(s1)-c1c(cnn1-c1ccccc1Cl)C2)N1CCC(N2Cc3ccccc3NC2=O)C1 (centres undefined)
17,< 800 nM,CCc1cnc(CCNC(=O)Nc2nc3c(s2)-c2c(cnn2-c2ccccc2Cl)C3)o1
18,< 800 nM,CC(C)CNC(=O)Nc1nc2c(s1)-c1c(cnn1-c1ccccc1Cl)C2
19,< 800 nM,O=C1CC[C@H](NC(=O)Nc2nc3c(s2)-c2c(cnn2-c2ccccc2Cl)C3)CN1
